Read-outs that look alike come from different tables or passages of the source. One block for each molecule: values may come before it.
How the values were obtained:
[1] = pKa determination; type: physicochemical
[2] = target: rat NTS1-H4 receptor; assay: SPR kinetic binding of reference ligands on captured NTS1-H4 receptor
Method: All SPR binding experiments were performed on Biacore® 3000, T200 and Biacore 4000 (GE Healthcare, Uppsala, Sweden) instruments at 15°C in a running buffer composed of 20 mM Tris, 150 mM NaCl, 0.01% (v/v) L-MNG, 2% (v/v) DMSO, pH 8.0, at flow of 30 μl·min^-1. Running buffer was prepared freshly every day and filtered with Express™Plus Steritop filters with 0.22 μm cut off (Millipore, Billerica, MA, USA) and degassed prior to SPR analysis. Dose-response experiments for peptides were performed in the buffer without DMSO, as the analyzed peptide concentration range was in nM range and it was not necessary to work with DMSO in the running buffer to correct for the resonance signals. […]
All SPR data processing and analyses were performed using BiaEvaluation Software (version 1.0 (Biacore 4000) and 4.1 (Biacore 3000)), and GraphPadPrism (version 6.04). All monitored binding resonance signals were corrected regarding DMSO solvent signals and further double-referenced, i. e., signals monitored on the binding active channel were subtracted by signals from the reference channel (sensor surface not modified with any reference protein) and by buffer signals. […]

[3] = target: NTS1-H4; design: method as in PMID 25064156; details: competition with fluorescently labeled NT8-13, NTS1-H4-coated beads; cited from earlier work
[4] = test system: NTS1-H4 receptor; assay: SPR competition of NT8-13 and SR142948 on NTS1-H4 receptor; type: binding, rat; details: 100 nM NT8-13 then 100 nM SR142948 injected subsequently
Method: Supplementary file pone.0175842.s003.pdf: S3 Fig Competition of neurotensin peptide NT8-13 and antagonist SR142948 on the NTS1-H4 receptor. NT8-13 agonist (saturating concentration of 100 nM) and antagonist SR142948 (saturating concentration of 100 nM) were injected subsequently over the NTS1-H4 receptor-coated surface. No binding of SR142948 was detected on the NTS1-H4 receptor that had been saturated previously by agonist NT8-13 peptide, indicating complete occupancy of the binding site and binding to the same binding site. (PDF) Click here for additional data file.

pKa ([1]; read-out: pKa1 ± σ): 6.49 ± 0.04
pKa ([1]; read-out: pKa2): 11.04 ± 0.08
Molecule: COc1ccc(N(C(C)C)S(N)(=O)=O)cc1 [fragment 3]

pKa ([1]; read-out: pKa1 ± σ): 4.86 ± 0.08
Molecule: COc1ccc(Cc2nn[nH]n2)cc1 [fragment 4]

More lines, now with the values behind:

Molecule: Nc1nnc2c(C(F)(F)F)nc3ccccc3n12 [fragment 1]
pKa ([1]; read-out: pKa1 ± σ): 2.14 ± 0.04

Molecule: COc1cccc(S(=O)(=O)c2ccccc2CC(N)=O)c1 [fragment 2]
pKa1 ± σ [1]: out of range

Molecule: SR142948
Kd [2]: 0.4 nM
Ki [3]: 0.5 nM
binding to NTS1-H4 receptor previously saturated by NT8-13 [4]: No binding

Source: PMC5433701, “SPR-based fragment screening with neurotensin receptor 1 generates novel small molecule ligands” (PLoS ONE, 2017)
